Results from the supplement of paper PMC11061612.

Columns and labels:
[1] = compound: CCN(CCO)CCCOc1ccc2c(Nc3cc(CC(=O)Nc4cccc(F)c4)[nH]n3)ncnc2c1 [AZD2811]; details: max 1 µM
Method in brief: (§1)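 Cancer cell lines were seeded in 1536-well plates in 7.5 μl DMEM/F12 or RPMI with 10% FBS, held 24 hours at 37°C and 5% CO2, then dosed for 72 hours (final DMSO typically 0.2%). Viability was read by CellTiter-Glo 2.0 luminescence and scaled between blank-well and DMSO-well means. The single-agent IC50 comes from dose responses fitted to a two-parameter logistic curve with a non-linear mixed effects model.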

[2] = compound: COc1cc([C@@H]2c3cc4c(cc3[C@@H](O[C@@H]3O[C@@H]5CO[C@@H](C)O[C@H]5[C@H](O)[C@H]3O)[C@H]3COC(=O)[C@H]23)OCO4)cc(OC)c1O [Etoposide]; details: max 10 µM
Method in brief: as §1

[3] = compound: C[C@@H](Nc1cc(F)cc(F)c1)c1cc(C(=O)N(C)C)cc2c(=O)cc(N3CCOCC3)oc12 [AZD8186]; details: max 10 µM
Method in brief: as §1

[4] = compound: Cn1cnc2c(F)c(Nc3ccc(Br)cc3Cl)c(C(=O)NOCCO)cc21 [Selumetinib]; details: max 10 µM
Method in brief: as §1

[5] = compound: CN(C)CCCOc1ccc(-c2ccc3ncc4c(c3c2)n(C2CCOCC2)c(=O)n4C)cn1 [AZD0156]; details: max 3 µM
Method in brief: as §1

[6] = compound: CS(=O)(=O)CCNCc1ccc(-c2ccc3ncnc(Nc4ccc(OCc5cccc(F)c5)c(Cl)c4)c3c2)o1 [Lapatinib]; details: max 10 µM
Method in brief: as §1

[7] = compound: CC(=O)Nc1cccc(-n2c(=O)n(C3CC3)c(=O)c3c(Nc4ccc(I)cc4F)n(C)c(=O)c(C)c32)c1 [Trametinib]; details: max 1 µM
Method in brief: as §1

[8] = compound: C[C@@H]1COCCN1C2=NC(=NC(=C2)C3(CC3)[S@](=N)(=O)C)C4=C5C=CNC5=NC=C4 [AZD6738]; details: max 10 µM
Method in brief: as §1

[9] = compound: C=CCn1c(=O)c2cnc(Nc3ccc(N4CCN(C)CC4)cc3)nc2n1-c1cccc(C(C)(C)O)n1 [AZD1775]; details: max 3 µM
Method in brief: as §1

[10] = compound: Cc1c2c(nn1C)CSCc1cc(n(C)n1)CSc1cc(c3ccccc3c1)OCCCc1c(C(=O)O)n(C)c3c-2c(Cl)ccc13 [AZD5991]; details: max 1 µM
Method in brief: as §1

[11] = compound: C[C@@H](Oc1cc(-c2cnn(C3CCNCC3)c2)cnc1N)c1c(Cl)ccc(F)c1Cl [Crizotinib]; details: max 10 µM
Method in brief: as §1

[12] = compound: COc1nnc2ccc(N3CCC(c4ccc(OCCN5CCN(C)C(=O)[C@H]5C)cc4)CC3)nn12 [AZD5153]; details: max 1 µM
Method in brief: as §1

[13] = compound: C1CN(CCC1(C(=O)N[C@@H](CCO)C2=CC=C(C=C2)Cl)N)C3=NC=NC4=C3C=CN4 [AZD5363]; details: max 10 µM
Method in brief: as §1

[14] = compound: COc1cccc(OCCCN)c1-c1cc(Nc2cnc(C#N)cn2)n[nH]1 [Prexasertib]; details: max 1 µM
Method in brief: as §1

[15] = compound: O=c1[nH]cc(F)c(=O)[nH]1 [5-Fluorouracil]; details: max 20 µM
Method in brief: as §1

[16] = compound: CC(=O)c1c(C)c2cnc(Nc3ccc(N4CCNCC4)cn3)nc2n(C2CCCC2)c1=O [Palbociclib]; details: max 10 µM
Method in brief: as §1

[17] = compound: Cc1cc2ncnn2cc1Nc1ncc2c(n1)n(C1CCOCC1)c(=O)n2C [AZD7648]; details: max 10 µM
Method in brief: as §1

[18] = compound: C[C@@H](c1ccc2nccn2c1)n1nnc2ncc(-c3cnn(C)c3)nc21 [Savolitinib]; details: max 1 µM
Method in brief: as §1

[19] = compound: Cc1nc(-c2cn3c(n2)-c2ccc(-c4cnn(C(C)(C)C(N)=O)c4)cc2OCC3)n(C(C)C)n1 [Taselisib]; details: max 10 µM
Method in brief: as §1

[20] = compound: CN(CC[C@H](CSC1=CC=CC=C1)NC2=C(C=C(C=C2)S(=O)(=O)NC(=O)C3=CC=C(C=C3)N4CCC(CC4)[C@H](C5=CC=CC=C5C6=CC=C(C=C6)Cl)O)S(=O)(=O)C(F)(F)F)CCO [AZD4320]; details: max 1 µM
Method in brief: as §1

[21] = compound: C1CC(C1)(C(=O)[O-])C(=O)[O-].N.N.[Pt+2] [Carboplatin]; details: max 10 µM
Method in brief: as §1

[22] = compound: COc1cc(Nc2ncc3c(n2)-c2ccc(Cl)cc2C(c2c(F)cccc2OC)=NC3)ccc1C(=O)O [Alisertib]; details: max 10 µM
Method in brief: as §1

[23] = compound: CC1(C)CCC(CN2CCN(c3ccc(C(=O)NS(=O)(=O)c4ccc(NCC5CCOCC5)c([N+](=O)[O-])c4)c(Oc4cnc5[nH]ccc5c4)c3)CC2)=C(c2ccc(Cl)cc2)C1 [Venetoclax]; details: max 1 µM
Method in brief: as §1

[24] = compound: CC1=C(C(=CC=C1)Cl)NC(=O)C2=CN=C(S2)NC3=CC(=NC(=N3)C)N4CCN(CC4)CCO [Dasatinib]; details: max 2 µM
Method in brief: as §1

[25] = compound: COc1cccc2c1C(=O)c1c(O)c3c(c(O)c1C2=O)C[C@@](O)(C(=O)CO)C[C@@H]3O[C@H]1C[C@H](N)[C@H](O)[C@H](C)O1 [Doxorubicin]; details: max 1 µM
Method in brief: as §1

[26] = compound: O=C(c1cc(Cc2n[nH]c(=O)c3ccccc23)ccc1F)N1CCN(C(=O)C2CC2)CC1 [Olaparib]; details: max 10 µM
Method in brief: as §1

[27] = compound: N#Cc1cnc(Nc2cc(NC[C@H]3CNCCO3)c(C(F)(F)F)cn2)cn1 [SRA737]; details: max 10 µM
Method in brief: as §1

[28] = compound: CC1=CN2[C@@H](C1)C=NC3=CC(=C(C=C3C2=O)OC)OCCCCCOC4=C(C=C5C(=C4)N=C[C@@H]6CC(=CN6C5=O)C)OC [SG3199]; details: max 0.001 µM
Method in brief: as §1

[29] = compound: CC(C)n1c(=O)n(C)c2cnc3cc(F)c(-c4ccc(OCCCN5CCCCC5)nc4)cc3c21 [AZD1390]; details: max 0.3 µM
Method in brief: as §1

[30] = compound: Nc1ccn([C@@H]2O[C@H](CO)[C@@H](O)C2(F)F)c(=O)n1 [Gemcitabine]; details: max 0.3 µM
Method in brief: as §1

[31] = compound: O=C(Nc1ccc2[nH]nc(-c3ccncc3)c2c1)[C@@H]1CCN(CC(=O)N2CCN(c3ccc(-c4ncccn4)cc3)CC2)C1; details: max 5 µM
Method in brief: as §1

[32] = compound: CC(=O)O[C@H]1C(=O)[C@@]2(C)[C@H]([C@H](OC(=O)c3ccccc3)[C@]3(O)C[C@H](OC(=O)[C@H](O)[C@@H](NC(=O)c4ccccc4)c4ccccc4)C(C)=C1C3(C)C)[C@]1(OC(C)=O)CO[C@@H]1C[C@@H]2O [Paclitaxel]; details: max 3 µM
Method in brief: as §1

[33] = compound: COc1cc2ncnc(Nc3ccc(F)c(Cl)c3)c2cc1OCCCN1CCOCC1 [Gefitinib]; details: max 10 µM
Method in brief: as §1

[34] = compound: NC1(c2ccc(-c3nc4ccn5c(=O)[nH]nc5c4cc3-c3ccccc3)cc2)CCC1 [MK-2206]; details: max 10 µM
Method in brief: as §1

[35] = compound: CCc1c2c(nc3ccc(O)cc13)-c1cc3c(c(=O)n1C2)COC(=O)[C@]3(O)CC [SN-38]; details: max 0.3 µM
Method in brief: as §1

Cell Line | IC50, cell viability 72 h [1] [µM] | IC50, cell viability 72 h [2] [µM] | IC50, cell viability 72 h [3] [µM] | IC50, cell viability 72 h [4] [µM] | IC50, cell viability 72 h [5] [µM] | IC50, cell viability 72 h [6] [µM] | IC50, cell viability 72 h [7] [µM] | IC50, cell viability 72 h [8] [µM] | IC50, cell viability 72 h [9] [µM] | IC50, cell viability 72 h [10] [µM] | IC50, cell viability 72 h [11] [µM] | IC50, cell viability 72 h [12] [µM] | IC50, cell viability 72 h [13] [µM] | IC50, cell viability 72 h [14] [µM] | IC50, cell viability 72 h [15] [µM] | IC50, cell viability 72 h [16] [µM] | IC50, cell viability 72 h [17] [µM] | IC50, cell viability 72 h [18] [µM] | IC50, cell viability 72 h [19] [µM] | IC50, cell viability 72 h [20] [µM] | IC50, cell viability 72 h [21] [µM] | IC50, cell viability 72 h [22] [µM] | IC50, cell viability 72 h [23] [µM] | IC50, cell viability 72 h [24] [µM] | IC50, cell viability 72 h [25] [µM] | IC50, cell viability 72 h [26] [µM] | IC50, cell viability 72 h [27] [µM] | IC50, cell viability 72 h [28] [µM] | IC50, cell viability 72 h [29] [µM] | IC50, cell viability 72 h [30] [µM] | IC50, cell viability 72 h [31] [µM] | IC50, cell viability 72 h [32] [µM] | IC50, cell viability 72 h [33] [µM] | IC50, cell viability 72 h [34] [µM] | IC50, cell viability 72 h [35] [µM]
8305C (Thyroid Gland Carcinoma) | > 1 | > 10 | > 10 | > 10 | > 3 | > 10 | 0.902 | > 10 | 1.94 | > 1 | > 10 | > 1 | > 10 | 0.0878 | > 20 | > 10 | > 10 | > 1 | 1.28 | > 1 | > 10 | > 10 | > 1 | 1.15 | > 1 | > 10 | > 10 | > 0.001 | > 0.3 | > 0.3 | > 5 | 0.159 | > 10 | > 10 | > 0.3
CAL-54 (Kidney Carcinoma) | > 1 | > 10 | 0.873 | > 10 | > 3 | 7.99 | > 1 | 5.49 | 0.452 | > 1 | > 10 | 0.102 | 9.91 | 0.0385 | > 20 | 4.13 | > 10 | > 1 | 2.28 | > 1 | > 10 | 4.71 | > 1 | 0.0336 | 0.936 | > 10 | > 10 | > 0.001 | > 0.3 | 0.0234 | > 5 | 0.399 | 5.89 | 3.36 | 0.0156
CAPAN-1 (Pancreatic Carcinoma) | > 1 | > 10 | > 10 | > 10 | > 3 | > 10 | 0.349 | > 10 | 1.23 | > 1 | > 10 | > 1 | > 10 | 0.485 | > 20 | > 10 | > 10 | > 1 | > 10 | > 1 | > 10 | > 10 | > 1 | > 2 | > 1 | > 10 | > 10 | > 0.001 | > 0.3 | 0.13 | 2.79 | 0.188 | > 10 | > 10 | 0.0388
EN (Endometrial Carcinoma) | 0.947 | > 10 | > 10 | > 10 | > 3 | > 10 | > 1 | 8.64 | 0.77 | > 1 | > 10 | > 1 | 5.5 | 0.0413 | > 20 | > 10 | > 10 | > 1 | 2.73 | > 1 | > 10 | 3.67 | > 1 | > 2 | > 1 | > 10 | > 10 | > 0.001 | > 0.3 | > 0.3 | > 5 | 0.798 | > 10 | 8.08 | > 0.3
HARA (Squamous Cell Lung Carcinoma) | > 1 | 9.59 | > 10 | > 10 | > 3 | 7.69 | 0.858 | 1.73 | 0.207 | > 1 | > 10 | 0.223 | 9.16 | 0.0139 | 18.3 | 7.42 | > 10 | > 1 | 2.15 | > 1 | > 10 | 3.82 | > 1 | > 2 | 0.577 | > 10 | 1 | > 0.001 | > 0.3 | 0.056 | 3.84 | 0.00363 | > 10 | > 10 | 0.0445
